The text below walks through data of patent US12516048B2, “B-lactam compounds, their preparation and use as antibacterial agents” (NINGXIA ACADEMY OF AGRICULTURE AND FORESTRY SCIENCES, priority 2020, dated 2026).

Some results are limits rather than exact numbers.

What all share (test): MIC determination, broth microdilution (CLSI)
Common to all, as to format: cell-based

The subject of one experiment is A. baumannii 19606. The settings on record: Acinetobacter baumannii, Mueller Hinton Broth II, 37° C., 18-24 hours, read-out: Strain8 MIC. How it is done:
(§1) Compounds of this invention were tested for antimicrobial activity by determining minimum inhibitory concentrations (MICs, in μg/mL) using the broth microdilution method according to the guidelines of the Clinical Laboratories and Standards Institute (“Methods for Dilution Antimicrobial Susceptibility Tests for Bacteria that Grow Aerobically”, Approved standard, 7th ed., Clinical and Laboratory Standards Institute (CLSI) Document M7-A8, Wayne, Pa., USA, 2009.). AZT: aztreonam (AZT) and ceftazidime (CAZ) were used as control antibiotics. Test compounds were dissolved in DMSO. The compounds were then diluted in microbial growth medium (Mueller Hinton Broth II, cation adjusted) resulting in a final concentration range of 0.063-64 μg/mL in serial two-fold dilution. In all cases the final DMSO concentration was less than 0.5%. Bacteria were added to 96-well microtitre plates containing the two-fold dilutions of the compounds; the final cell density was approximately 5×10^5 colony forming units/mL (CFU/mL). Plates were incubated at 37° C. for 18-24 hours and read visually. The MIC, i.e. the lowest concentration of the test compound that inhibited visible growth of the bacteria, was recorded. The same assay conditions were used when the compounds of this invention were tested in combination with β-lactamase inhibitors. While the compounds of this invention were serially diluted as described above, a constant concentration of the inhibitor of 4 mg/L was used.
(§2) Bacterial strains that were used to evaluate the antimicrobial activity using the MIC determination included but were not limited to E. coli clinical isolate, E. coli 8739, K. pneumoniae clinical isolate, K. pneumoniae 700603, E. cloacae clinical isolate, E. cloacae 700323, A. baumannii clinical isolate, A. baumannii 19606, P. aeruginosa clinical isolate, P. aeruginosa 9027.

The test system of another experiment is P. aeruginosa 9027. The conditions noted are these: Pseudomonas aeruginosa, Mueller Hinton Broth II, 37° C., 18-24 hours, read-out: Strain 10 MIC. How it is done: as §1, §2
Experiment [1] relates to K. pneumoniae clinical isolate. The conditions noted are these: Klebsiella pneumoniae, Mueller Hinton Broth II, 37° C., 18-24 hours, read-out: Strain 3 MIC. How it is done:
as §1, §2

For experiment [2], the system named is P. aeruginosa clinical isolate. The settings on record: Pseudomonas aeruginosa, Mueller Hinton Broth II, 37° C., 18-24 hours, read-out: Strain 9 MIC. How it is done:
as §1, §2

The next experiment has as its system E. cloacae 700323. The settings on record: Enterobacter cloacae, Mueller Hinton Broth II, 37° C., 18-24 hours, read-out: Strain 6 MIC. How it is done:
as §1, §2

A further experiment concerns E. coli clinical isolate. The conditions noted are these: Escherichia coli, Mueller Hinton Broth II, 37° C., 18-24 hours, read-out: Strain 1 MIC. How it is done: as §1, §2
In experiment [3] the test system is A. baumannii clinical isolate. The conditions noted are these: Acinetobacter baumannii, Mueller Hinton Broth II, 37° C., 18-24 hours, read-out: Strain 7 MIC. How it is done:
as §1, §2

Experiment [4] deals with E. cloacae clinical isolate. The settings on record: Enterobacter cloacae, Mueller Hinton Broth II, 37° C., 18-24 hours, read-out: Strain5 MIC. How it is done: as §1, §2
The subject of another experiment is E. coli 8739. The conditions noted are these: Escherichia coli, Mueller Hinton Broth II, 37° C., 18-24 hours, read-out: Strain 2 MIC. How it is done: as §1, §2
A further experiment concerns K. pneumoniae 700603. The settings on record: Klebsiella pneumoniae, Mueller Hinton Broth II, 37° C., 18-24 hours, read-out: Strain 4 MIC. How it is done:
as §1, §2

Usually MIC stands for the lowest concentration that inhibits growth of the organism. On to `Cc1sc(N)nc1/C(=N/O[C@@H](COc1ccc(C(=N)N[C@@H]2CCNC2)cc1)C(=O)O)C(=O)N[C@@H]1C(=O)N(OS(=O)(=O)O)C1(C)C` [Example 6, (S)-2-((((Z)-1-(2-Amino-5-methylthiazol-4-yl)-2-(((S)-2,2-dimethyl-4-oxo-1-(sulfooxy)azetidin-3-yl)amino)-2-oxoethylidene)amino)oxy)-3-(4-(N-((R)-pyrrolidin-3-yl)carbamimidoyl)phenoxy)propanoic acid], for which the MIC came out at 8 µg/mL in the experiment with A. baumannii 19606; 2 µg/mL with P. aeruginosa 9027; 1 µg/mL in [1]; 2 µg/mL in [2]; 4 µg/mL with E. cloacae 700323; 1 µg/mL in the experiment on E. coli clinical isolate. In addition, the MIC amounted to 8 µg/mL in experiment [3], 2 µg/mL in experiment [4], 0.25 µg/mL in the experiment on E. coli 8739 and 1 µg/mL in the experiment on K. pneumoniae 700603.

In the case of `Cc1sc(N)nc1/C(=N/O[C@@H](COc1ccc(C(=N)NC2CNC2)cc1)C(=O)O)C(=O)N[C@@H]1C(=O)N(OS(=O)(=O)O)C1(C)C` [Example 4, (S)-2-((((Z)-1-(2-Amino-5-methylthiazol-4-yl)-2-(((S)-2,2-dimethyl-4-oxo-1-(sulfooxy)azetidin-3-yl)amino)-2-oxoethylidene)amino)oxy)-3-(4-(N-(azetidin-3-yl)carbamimidoyl)phenoxy)propanoic acid], the MIC stood at 16 µg/mL in the experiment with A. baumannii 19606; 4 µg/mL in the experiment with P. aeruginosa 9027; 32 µg/mL in [1]; 8 µg/mL in [2]; 32 µg/mL in the experiment on E. cloacae 700323; 4 µg/mL in the experiment on E. coli clinical isolate. Also, the MIC was 32 µg/mL in experiment [3], 32 µg/mL in [4], 4 µg/mL with E. coli 8739 and 64 µg/mL in the experiment with K. pneumoniae 700603.

Consider `Cc1sc(N)nc1/C(=N/O[C@@H](COc1ccc(C(=N)N[C@H]2CCCNC2)cc1)C(=O)O)C(=O)N[C@@H]1C(=O)N(OS(=O)(=O)O)C1(C)C` [Example 5, (S)-2-((((Z)-1-(2-Amino-5-methylthiazol-4-yl)-2-(((S)-2,2-dimethyl-4-oxo-1-(sulfooxy)azetidin-3-yl)amino)-2-oxoethylidene)amino)oxy)-3-(4-(N-((S)-piperidin-3-yl)carbamimidoyl)phenoxy)propanoic acid], for which the MIC in the experiment with A. baumannii 19606 amounted to 16 µg/mL; in the experiment with P. aeruginosa 9027, 4 µg/mL; in [1], 32 µg/mL; in [2] it was 4 µg/mL; in the experiment with E. cloacae 700323, 32 µg/mL; in the experiment on E. coli clinical isolate, 4 µg/mL. The MIC in experiment [3] was found to be 32 µg/mL; in experiment [4], 64 µg/mL; in the experiment with E. coli 8739, 4 µg/mL; in the experiment with K. pneumoniae 700603, 64 µg/mL.

Turning to `CC1(C)[C@H](NC(=O)/C(=N\O[C@@H](COc2ccc(C(=N)N[C@@H]3CCNC3)cc2)C(=O)O)c2nc(N)sc2C(F)(F)F)C(=O)N1OS(=O)(=O)O` [Example 7, (S)-2-((((Z)-1-(2-Amino-5-(trifluoromethyl)thiazol-4-yl)-2-(((S)-2,2-dimethyl-4-oxo-1-(sulfooxy)azetidin-3-yl)amino)-2-oxoethylidene)amino)oxy)-3-(4-(N-((R)-pyrrolidin-3-yl)carbamimidoyl)phenoxy)propanoic acid], the MIC in the experiment with A. baumannii 19606 is 16 µg/mL; with P. aeruginosa 9027, 16 µg/mL; in [1], 16 µg/mL; in [2], 8 µg/mL; in the experiment with E. cloacae 700323 it was 32 µg/mL; in the experiment with E. coli clinical isolate it was 32 µg/mL. Besides, the MIC in [3] came to 16 µg/mL; in experiment [4], 32 µg/mL; in the experiment on E. coli 8739 it was 8 µg/mL; in the experiment on K. pneumoniae 700603, 8 µg/mL.

In the case of `C[C@H]1[C@H](NC(=O)/C(=N\OC(C)(C)C(=O)O)c2csc(N)n2)C(=O)N1S(=O)(=O)O` [AZT, Aztreonam, reference compound], the MIC is 32 µg/mL in the experiment with A. baumannii 19606; 16 µg/mL with P. aeruginosa 9027; 64 µg/mL in [1]; more than 64 µg/mL in experiment [2]; more than 64 µg/mL with E. cloacae 700323; more than 64 µg/mL with E. coli clinical isolate. Also, the MIC was more than 64 µg/mL in experiment [3], more than 64 µg/mL in experiment [4], 16 µg/mL with E. coli 8739 and 64 µg/mL in the experiment with K. pneumoniae 700603.

Turning to `Cc1sc(N)nc1/C(=N/O[C@@H](COc1ccc(C(=N)N[C@@H]2CCCNC2)cc1)C(=O)O)C(=O)N[C@@H]1C(=O)N(OS(=O)(=O)O)C1(C)C` [Example 2, (S)-2-((((Z)-1-(2-Amino-5-methylthiazol-4-yl)-2-(((S)-2,2-dimethyl-4-oxo-1-(sulfooxy)azetidin-3-yl)amino)-2-oxoethylidene)amino)oxy)-3-(4-(N-((R)-piperidin-3-yl)carbamimidoyl)phenoxy)propanoic acid], the MIC with A. baumannii 19606 is 16 µg/mL; in the experiment on P. aeruginosa 9027 it was 32 µg/mL; in [1] it was 32 µg/mL; in [2] it was 8 µg/mL; in the experiment on E. cloacae 700323, 32 µg/mL; in the experiment with E. coli clinical isolate, 4 µg/mL. The MIC in [3] is 16 µg/mL; in experiment [4], 64 µg/mL; in the experiment on E. coli 8739, 2 µg/mL; in the experiment on K. pneumoniae 700603, 64 µg/mL.

Consider `Cc1sc(N)nc1/C(=N/O[C@@H](COc1ccc(C(=N)NC2CCNCC2)cc1)C(=O)O)C(=O)N[C@@H]1C(=O)N(OS(=O)(=O)O)C1(C)C` [Example 1, (S)-2-((((Z)-1-(2-Amino-5-methylthiazol-4-yl)-2-(((S)-2,2-dimethyl-4-oxo-1-(sulfooxy)azetidin-3-yl)amino)-2-oxoethylidene)amino)oxy)-3-(4-(N-(piperidin-4-yl)carbamimidoyl)phenoxy)propanoic acid], for which the MIC turned out to be 16 µg/mL in the experiment with A. baumannii 19606; 8 µg/mL in the experiment with P. aeruginosa 9027; 32 µg/mL in experiment [1]; 16 µg/mL in [2]; 32 µg/mL in the experiment on E. cloacae 700323; 4 µg/mL in the experiment with E. coli clinical isolate. For the same compound, the MIC in experiment [3] turned out to be 32 µg/mL; in experiment [4], 64 µg/mL; in the experiment with E. coli 8739, 4 µg/mL; with K. pneumoniae 700603 it was 32 µg/mL.

In the case of `Cc1sc(N)nc1/C(=N/O[C@@H](COc1ccc(C(=N)N[C@@H]2CCNC2)cc1)C(=O)O)C(=O)N[C@@H]1C(=O)N(S(=O)(=O)O)[C@H]1C` [Example 8, (S)-2-((((Z)-1-(2-amino-5-methylthiazol-4-yl)-2-(((2S,3S)-2-methyl-4-oxo-1-sulfoazetidin-3-yl)amino)-2-oxoethylidene)amino)oxy)-3-(4-(N-((R)-pyrrolidin-3-yl)carbamimidoyl)phenoxy)propanoic acid], the MIC with A. baumannii 19606 was determined as 16 µg/mL; in the experiment on P. aeruginosa 9027, 1 µg/mL; in [1], 32 µg/mL; in [2] it was 16 µg/mL; in the experiment on E. cloacae 700323, 32 µg/mL; with E. coli clinical isolate it was 1 µg/mL. The minimum inhibitory concentration (MIC) in experiment [3] came out at 32 µg/mL; in experiment [4], 64 µg/mL; with E. coli 8739 it was 0.5 µg/mL; in the experiment with K. pneumoniae 700603, 64 µg/mL.

Take `CC(C)(O/N=C(\C(=O)N[C@@H]1C(=O)N2C(C(=O)[O-])=C(C[n+]3ccccc3)CS[C@H]12)c1csc(N)n1)C(=O)O` [CAZ, Ceftazidime, reference compound]: the MIC (in the experiment on A. baumannii 19606; in the experiment on P. aeruginosa 9027; in [1]; in [2]; with E. cloacae 700323; in the experiment with E. coli clinical isolate) was more than 64 µg/mL in each case. The MIC (in experiment [3]; in experiment [4]; with E. coli 8739; with K. pneumoniae 700603) was more than 64 µg/mL in each case.

With `Cc1sc(N)nc1/C(=N/O[C@@H](COc1ccc(C(=N)N[C@H]2CCNC2)cc1)C(=O)O)C(=O)N[C@@H]1C(=O)N(OS(=O)(=O)O)C1(C)C` [Example 3, (S)-2-((((Z)-1-(2-Amino-5-methylthiazol-4-yl)-2-(((S)-2,2-dimethyl-4-oxo-1-(sulfooxy)azetidin-3-yl)amino)-2-oxoethylidene)amino)oxy)-3-(4-(N-((S)-pyrrolidin-3-yl)carbamimidoyl)phenoxy)propanoic acid], the MIC in the experiment on A. baumannii 19606 worked out at 32 µg/mL; with P. aeruginosa 9027 it was 8 µg/mL; in experiment [1], 32 µg/mL; in experiment [2], 8 µg/mL; with E. cloacae 700323, 32 µg/mL; with E. coli clinical isolate it was 4 µg/mL. Moreover, the MIC in experiment [3] was determined as 32 µg/mL; in [4], 64 µg/mL; in the experiment with E. coli 8739, 4 µg/mL; in the experiment with K. pneumoniae 700603 it was 64 µg/mL.
